According to patent publication US20230120597A1, “CO-AGONISTS AT GLP-1 AND GIP RECEPTORS SUITABLE FOR ORAL DELIVERY” (Novo Nordisk A/S, priority 2020, published 2023):
Marks after values point to notes of the source that are not given here. Starred links: 1 amine or outer side, 2 acyl side, 3 side chain; linkers in the order of their positions; H or OH if unused. Non-standard residues stand in square brackets, D forms with d. Residues, ends and D or L forms follow the SMILES beside them. Groups on a side chain read outwards from the residue. *: point of attachment. C20 diacid = O=C(O)CCCCCCCCCCCCCCCCCCC(=O)*; C18 diacid = O=C(O)CCCCCCCCCCCCCCCCC(=O)*; γGlu = O=C(O)[C@H](CCC(=O)[*:2])N[*:1]; εLys = N[C@@H](CCCCN[*:1])C(=O)[*:2]; Aib = CC(C)(N)C(=O)O

Test: Pharmacokinetic study in dogs, oral dosing of tablet compositions with SNAC
Type: in vivo, Beagle dogs
Details: dog, in vivo, po
Description: The purpose of this example is to determine the half-life and plasma exposure in vivo of the compounds of the present invention after p.o. administration to beagle dogs, i.e. the terminal half-life and concentration of test substance that reaches circulation with time. This is done in a pharmacokinetic (PK) study, where these parameters of the compound in question are determined. By terminal half-life is generally meant the period of time it takes to halve a certain plasma concentration, measured after the initial distribution phase.
The amount of SNAC in the tablet composition was 100-300 mg, the amount of magnesium stearate in the tablet composition was 7.7 mg, and the target amount of each test substance in the tablet composition was 3-4 mg.
Male beagle dogs, 1-7 years of age and weighing 9-17 kg during the study period, were included in the study. The dogs were dosed in a fasting state. The dogs were group housed in pens (12 hours light: 12 hours dark), and fed individually and restrictedly once daily with Royal Canin Medium Adult dog food (Royal Canin Products, China Branch, or Brogaarden A/S, Denmark). The dogs were used for repeated PK studies with a suitable wash-out period between successive dosing. An appropriate acclimatization period was given prior to initiation of the first PK study. All handling, dosing, and blood sampling of the animals were performed by trained and skilled staff. Before the studies, the dogs were fasted overnight and from 0 to 4 hours after dosing. The dogs were restricted to water 1 hour before dosing until 4 hours after dosing, but otherwise had ad libitum access to water during the whole period.
The compositions were administered by a single oral dosing to the dogs in groups of 6-8 dogs. […] The mouth was then closed, and 10 mL of tap water was given by syringe or gavage to facilitate swallowing of the tablet.
One blood sample was drawn before dosing, and additional samples were drawn at predefined time points after dosing for up to 240 hours, such as up to 10 hours, to adequately cover the full plasma concentration-time absorption profile of the test substance. For each blood sample time point, approximately 0.8 mL of whole blood was collected in a 1.5 mL EDTA-coated tube, which was gently turned to mix the sample with EDTA. Blood samples were collected in EDTA buffer (8 mM) and then centrifuged at 4° C. 2000 g for 10 minutes. Plasma was pipetted into Micronic tubes on dry ice, and kept at −20° C. or lower until analysis. Blood samples were taken as appropriate, for example from a venflon in the cephalic vein in the front leg for the first 2 hours and then with syringe from the jugular vein for the rest of the time points. The first few drops were allowed to drain from the venflon to avoid heparin saline from the venflon in the sample.
All blood samples were collected into test tubes containing EDTA for stabilisation and kept on ice until centrifugation. Plasma was separated from whole blood by centrifugation and the plasma was stored at −20° C. or lower until analysis.
The plasma was analysed for test substance using LC-MS (Liquid Chromatography-Mass Spectrometry) as known to the person skilled in the art. […] RP-HPLC separation was achieved using a linear gradient of 1:1 acetonitrile/methanol in 1% aqueous formic acid using either: a Phenomenex Onyx Monolithic C18 column (50×2.0 mm) and a flow rate of 0.8 mL/min at 30° C.; or an Agilent Poroshell 120 SB-C18 column (50×2.1 mm, 2.7 μm) at a flow rate of 0.4 mL/min at 60° C. The mass spectrometer was operated in either positive ionization SIM mode or positive ionization PRM mode.
For each individual animal, a plasma concentration-time profile was analysed by a non-compartmental model in Pharsight Phoenix WinNonLin ver.

Row | Structure (SMILES) | AUC/Dose
1 | CC[C@H](C)[C@H](NC(=O)[C@H](Cc1ccccc1)NC(=O)[C@H](CCC(=O)O)NC(=O)[C@H](CCCNC(=N)N)NC(=O)[C@H](C)NC(=O)[C@H](C)NC(=O)[C@H](CCC(N)=O)NC(=O)[C@H](CCCCNC(=O)[C@@H](N)CCCCNC(=O)[C@@H](N)CCCCNC(=O)CC[C@H](NC(=O)CCCCCCCCCCCCCCCCCCC(=O)O)C(=O)O)NC(=O)[C@H](CCC(=O)O)NC(=O)[C@H](CC(C)C)NC(=O)[C@H](Cc1ccc(O)cc1)NC(=O)[C@@H](NC(=O)[C@H](CO)NC(=O)[C@H](Cc1ccc(O)cc1)NC(=O)[C@H](CC(=O)O)NC(=O)[C@H](CO)NC(=O)[C@@H](NC(=O)[C@H](Cc1ccccc1)NC(=O)[C@@H](NC(=O)CNC(=O)[C@H](CCC(=O)O)NC(=O)C(C)(C)NC(=O)[C@@H](N)Cc1ccc(O)cc1)[C@@H](C)O)[C@@H](C)O)[C@@H](C)CC)C(=O)N[C@@H](CC(N)=O)C(=O)N[C@@H](Cc1c[nH]c2ccccc12)C(=O)N[C@@H](CC(C)C)C(=O)N[C@@H](CC(C)C)C(=O)N[C@@H](C)C(=O)NCC(=O)NCC(=O)N1CCC[C@H]1C(=O)N[C@@H](CO)C(=O)N[C@@H](CO)C(=O)NCC(=O)N[C@@H](C)C(=O)N1CCC[C@H]1C(=O)N1CCC[C@H]1C(=O)N1CCC[C@H]1C(=O)N[C@@H](CO)C(=O)O [Compound No. 16] (H-Y[Aib]EGTFTSDYSIYLEK([εLys-εLys-γGlu-C20 diacid])QAAREFINWLLAGGPSSGAPPPS-OH) | 8.6 kg·h/L
2 | CC[C@H](C)[C@H](NC(=O)[C@H](Cc1ccccc1)NC(=O)[C@H](CCC(=O)O)NC(=O)[C@H](CCCNC(=N)N)NC(=O)[C@H](C)NC(=O)[C@H](C)NC(=O)[C@H](CCC(N)=O)NC(=O)[C@H](CCCCNC(=O)[C@@H](N)CCCCNC(=O)[C@@H](N)CCCCNC(=O)CC[C@H](NC(=O)CCCCCCCCCCCCCCCCC(=O)O)C(=O)O)NC(=O)[C@H](CCC(=O)O)NC(=O)[C@H](CC(C)C)NC(=O)[C@H](CC(C)C)NC(=O)[C@@H](NC(=O)[C@H](CO)NC(=O)[C@H](Cc1ccc(O)cc1)NC(=O)[C@H](CC(=O)O)NC(=O)[C@H](CO)NC(=O)[C@@H](NC(=O)[C@H](Cc1ccccc1)NC(=O)[C@@H](NC(=O)CNC(=O)[C@H](CCC(=O)O)NC(=O)C(C)(C)NC(=O)[C@@H](N)Cc1ccc(O)cc1)[C@@H](C)O)[C@@H](C)O)[C@@H](C)CC)C(=O)N[C@@H](CC(N)=O)C(=O)N[C@@H](Cc1c[nH]c2ccccc12)C(=O)N[C@@H](CC(C)C)C(=O)N[C@@H](CC(C)C)C(=O)N[C@@H](C)C(=O)NCC(=O)NCC(=O)N1CCC[C@H]1C(=O)N[C@@H](CO)C(=O)N[C@@H](CO)C(=O)O [Compound No. 20] (H-Y[Aib]EGTFTSDYSILLEK([εLys-εLys-γGlu-C18 diacid])QAAREFINWLLAGGPSS-OH; N-terminus assumed) | 10.8 kg·h/L
3 | CC[C@H](C)[C@H](NC(=O)[C@H](Cc1ccccc1)NC(=O)[C@H](CCC(=O)O)NC(=O)[C@H](CCC(N)=O)NC(=O)[C@H](C)NC(=O)[C@H](C)NC(=O)[C@H](CCC(N)=O)NC(=O)[C@H](CCCCNC(=O)[C@@H](N)CCCCNC(=O)[C@@H](N)CCCCNC(=O)CC[C@H](NC(=O)CCCCCCCCCCCCCCCCC(=O)O)C(=O)O)NC(=O)[C@H](CCC(=O)O)NC(=O)[C@H](CC(C)C)NC(=O)[C@H](CC(C)C)NC(=O)[C@@H](NC(=O)[C@H](CO)NC(=O)[C@H](Cc1ccc(O)cc1)NC(=O)[C@H](CC(=O)O)NC(=O)[C@H](CO)NC(=O)[C@@H](NC(=O)[C@H](Cc1ccccc1)NC(=O)[C@@H](NC(=O)CNC(=O)[C@H](CCC(=O)O)NC(=O)C(C)(C)NC(=O)[C@@H](N)Cc1ccc(O)cc1)[C@@H](C)O)[C@@H](C)O)[C@@H](C)CC)C(=O)N[C@@H](CC(N)=O)C(=O)N[C@@H](Cc1c[nH]c2ccccc12)C(=O)N[C@@H](CC(C)C)C(=O)N[C@@H](CC(C)C)C(=O)N[C@@H](C)C(=O)NCC(=O)NCC(=O)N1CCC[C@H]1C(=O)N[C@@H](CO)C(=O)N[C@@H](CO)C(=O)NCC(=O)N[C@@H](C)C(=O)N1CCC[C@H]1C(=O)N1CCC[C@H]1C(=O)N1CCC[C@H]1C(=O)N[C@@H](CO)C(=O)O [Compound No. 24] (H-Y[Aib]EGTFTSDYSILLEK([εLys-εLys-γGlu-C18 diacid])QAAQEFINWLLAGGPSSGAPPPS-OH; N-terminus assumed) | 16.4 kg·h/L
4 | CC[C@H](C)[C@H](NC(=O)[C@H](Cc1ccccc1)NC(=O)[C@H](CCC(=O)O)NC(=O)[C@H](CCC(=O)O)NC(=O)[C@H](C)NC(=O)[C@H](C)NC(=O)[C@H](CCC(N)=O)NC(=O)[C@H](CCCCNC(=O)[C@@H](N)CCCCNC(=O)[C@@H](N)CCCCNC(=O)CC[C@H](NC(=O)CCCCCCCCCCCCCCCCC(=O)O)C(=O)O)NC(=O)[C@H](CCC(=O)O)NC(=O)[C@H](CC(C)C)NC(=O)[C@H](CC(C)C)NC(=O)[C@@H](NC(=O)[C@H](CO)NC(=O)[C@H](Cc1ccc(O)cc1)NC(=O)[C@H](CC(=O)O)NC(=O)[C@H](CO)NC(=O)[C@@H](NC(=O)[C@H](Cc1ccccc1)NC(=O)[C@@H](NC(=O)CNC(=O)[C@H](CCC(=O)O)NC(=O)C(C)(C)NC(=O)[C@@H](N)Cc1ccc(O)cc1)[C@@H](C)O)[C@@H](C)O)[C@@H](C)CC)C(=O)N[C@@H](CC(N)=O)C(=O)N[C@@H](Cc1c[nH]c2ccccc12)C(=O)N[C@@H](CC(C)C)C(=O)N[C@@H](CC(C)C)C(=O)N[C@@H](C)C(=O)NCC(=O)NCC(=O)N1CCC[C@H]1C(=O)N[C@@H](CO)C(=O)N[C@@H](CO)C(=O)NCC(=O)N[C@@H](C)C(=O)N1CCC[C@H]1C(=O)N1CCC[C@H]1C(=O)N1CCC[C@H]1C(=O)N[C@@H](CO)C(=O)O [Compound No. 25] (H-Y[Aib]EGTFTSDYSILLEK([εLys-εLys-γGlu-C18 diacid])QAAEEFINWLLAGGPSSGAPPPS-OH) | 15.2 kg·h/L
5 | CC[C@H](C)[C@H](NC(=O)[C@H](Cc1ccccc1)NC(=O)[C@H](CCC(=O)O)NC(=O)[C@H](Cc1c[nH]cn1)NC(=O)[C@H](C)NC(=O)[C@H](C)NC(=O)[C@H](CCC(N)=O)NC(=O)[C@H](CCCCNC(=O)[C@@H](N)CCCCNC(=O)[C@@H](N)CCCCNC(=O)CC[C@H](NC(=O)CCCCCCCCCCCCCCCCC(=O)O)C(=O)O)NC(=O)[C@H](CCC(=O)O)NC(=O)[C@H](CC(C)C)NC(=O)[C@H](CC(C)C)NC(=O)[C@@H](NC(=O)[C@H](CO)NC(=O)[C@H](Cc1ccc(O)cc1)NC(=O)[C@H](CC(=O)O)NC(=O)[C@H](CO)NC(=O)[C@@H](NC(=O)[C@H](Cc1ccccc1)NC(=O)[C@@H](NC(=O)CNC(=O)[C@H](CCC(=O)O)NC(=O)C(C)(C)NC(=O)[C@@H](N)Cc1ccc(O)cc1)[C@@H](C)O)[C@@H](C)O)[C@@H](C)CC)C(=O)N[C@@H](CC(N)=O)C(=O)N[C@@H](Cc1c[nH]c2ccccc12)C(=O)N[C@@H](CC(C)C)C(=O)N[C@@H](CC(C)C)C(=O)N[C@@H](C)C(=O)NCC(=O)NCC(=O)N1CCC[C@H]1C(=O)N[C@@H](CO)C(=O)N[C@@H](CO)C(=O)NCC(=O)N[C@@H](C)C(=O)N1CCC[C@H]1C(=O)N1CCC[C@H]1C(=O)N1CCC[C@H]1C(=O)N[C@@H](CO)C(=O)O [Compound No. 26] (H-Y[Aib]EGTFTSDYSILLEK([εLys-εLys-γGlu-C18 diacid])QAAHEFINWLLAGGPSSGAPPPS-OH) | 27.4* kg*h/L
